# Literature values as cited in patent publication EP0147926B1, “Oral anti-cancer compositions” (priority 1983, dated 1985).
# Columns and labels:
# [1] = test system: ADJ/PC6A plasmacytoma; settings: administered orally
# [2] = test system: P388 lymphocytic leukaemia; settings: administered orally
compound,measurement,setting,value
"N.N.O=C([O-])C1(C(=O)[O-])CCC1.[Pt+2] [cis-[diammine-(1,1-cyclobutanedicarboxylato)platinum(II)l]",activity,[1],insignificant activity
same,activity,[2],insignificant activity
